Experimental data: ChEMBL document CHEMBL5214905 (J Med Chem, 2021)
Activity calls are given as the source filed them. The calls are words filed in the database; no cut-off is given here.

Tests used:
[1] = biological target: Indoleamine 2,3-dioxygenase 1 (Homo sapiens, UniProt P14902); experiment: Inhibition of IDO1 in IFN-gamma induced overexpressing human HeLa cells; format: cell-based
[2] = biological target: Tryptophan 2,3-dioxygenase (Homo sapiens, UniProt P48775); experiment: Inhibition of TDO in overexpressing human SW48 cells; format: cell-based
BCRP [3] = experiment: Apparent permeability in human Caco-2 expressing BCRP cells across apical to basolateral side; format: ADME, cell-based; settings: read-out: permeability
BCRP [4] = experiment: Apparent permeability in human Caco-2 expressing BCRP cells across apical to basolateral side in presence of novobiocin; format: ADME, cell-based; settings: Caco-2, with novobiocin (concentration not stated), read-out: permeability
MDR1 [5] = experiment: Apparent permeability in MDCKII expressing MDR1 cells across basolateral to apical side; format: ADME, cell-based, Canis lupus familiaris, MDCK-II; settings: dog, MDCK-MDR1; read-out: permeability
BCRP [6] = experiment: Apparent permeability in human Caco-2 expressing BCRP cells across basolateral to apical side; format: ADME, cell-based; settings: read-out: permeability
BCRP [7] = experiment: Apparent permeability in human Caco-2 expressing BCRP cells across basolateral to apical side in presence of novobiocin; format: ADME, cell-based; settings: Caco-2, with novobiocin (concentration not stated), read-out: permeability
BCRP [8] = experiment: Efflux ratio of apparent permeability across basolateral to apical side to apical to basolateral side in human Caco-2 expressing BCRP cells in presence of novobiocin; format: ADME, cell-based; settings: Caco-2, with novobiocin (concentration not stated)
MDR1 [9] = experiment: Permeability in MDCKII expressing MDR1 cells across apical to basolateral side by measuring ratio of the final amount of the compound in donor and receiver chambers to the initial amount of the compound in the donor chamber relative to control; format: ADME, cell-based, Canis lupus familiaris, MDCK-II; settings: dog, MDCK-MDR1
BCRP [10] = experiment: Permeability in human Caco-2 expressing BCRP cells across apical to basolateral side by measuring ratio of the final amount of the compound in donor and receiver chambers to the initial amount of the compound in the donor chamber relative to control; format: ADME, cell-based
MDR1 [11] = experiment: Permeability in MDCKII expressing MDR1 cells across basolateral to apical side by measuring ratio of the final amount of the compound in donor and receiver chambers to the initial amount of the compound in the donor chamber relative to control; format: ADME, cell-based, Canis lupus familiaris, MDCK-II; settings: dog, MDCK-MDR1
BCRP [12] = experiment: Permeability in human Caco-2 expressing BCRP cells across basolateral to apical side by measuring ratio of the final amount of the compound in donor and receiver chambers to the initial amount of the compound in the donor chamber relative to control; format: ADME, cell-based
[13] = Unbound fraction in mouse plasma by LC-MS/MS analysis relative to control; format: ADME
[14] = Plasma protein binding in Kunming mouse assessed as binding rate by LC-MS/MS analysis relative to control; format: ADME; settings: read-out: PPB (converted)
[15] = AUC (0 to 12 hrs) in Sprague-Dawley rat plasma at 100 mg/kg, po measured after 0.083 to 24 hrs by HPLC analysis; format: ADME, organism-based; parameters: time lower 0.083 hrs, dose 100 mg/kg, time upper 24 hrs, route po
[16] = Half life in Sprague-Dawley rat plasma at 100 mg/kg, po by HPLC analysis; format: ADME, organism-based
[17] = Half life in Sprague-Dawley rat plasma at 100 mg/kg, iv by HPLC analysis; format: ADME, organism-based
[18] = Cmax in Sprague-Dawley rat plasma at 100 mg/kg, po measured after 0.083 to 24 hrs by HPLC analysis; format: ADME, organism-based; parameters: time lower 0.083 hrs, dose 100 mg/kg, time upper 24 hrs, route po
[19] = AUC (0 to 12 hrs) in Sprague-Dawley rat plasma at 100 mg/kg, iv measured after 0.083 to 24 hrs by HPLC analysis; format: ADME, organism-based; parameters: dose 100 mg/kg, time 0.083-24 hrs, route iv
[20] = AUC (0 to infinity) in Sprague-Dawley rat plasma at 100 mg/kg, po measured after 0.083 to 24 hrs by HPLC analysis; format: ADME, organism-based; parameters: time 0.083-24 hrs, dose 100 mg/kg, route po
[21] = Volume of distribution at steady state in Sprague-Dawley rat plasma at 100 mg/kg, iv measured after 0.083 to 24 hrs by HPLC analysis; format: ADME, organism-based; settings: time 0.083-24 hrs, read-out: Vdss
[22] = Clearance in Sprague-Dawley rat plasma at 100 mg/kg, po measured after 0.083 to 24 hrs by HPLC analysis; format: ADME, organism-based; settings: time 0.083-24 hrs
[23] = Clearance in Sprague-Dawley rat plasma at 100 mg/kg, iv measured after 0.083 to 24 hrs by HPLC analysis; format: ADME, organism-based; settings: time 0.083-24 hrs
[24] = Oral bioavailability in Sprague-Dawley rat plasma by measuring dose-corrected area under the curve (AUC) oral divided by AUC intravenous at 100 mg/kg measured after 0.083 to 24 hrs by HPLC analysis relative to control; format: ADME, organism-based; settings: time 0.083-24 hrs
[25] = Ratio of drug concentration in total brain to total plasma in Kunming mouse assessed as blood brain barrier permeability measured at 0.5 to 12 hrs by HPLC analysis; settings: time 0.5-12 hrs
Mus musculus [26] = experiment: Neuroprotective activity in MPTP induced C57BL/6J mouse neurodegenerative model treated with MPTP for 7 days followed by compound administration at 10 to 30 mg/kg, po measured on day 6 to 12 upto 180 secs at 25 rpm by rota-rod test; format: functional, organism-based; settings: dose 10-30 mg/kg, time 6-12 day
Mus musculus [27] = experiment: Neuroprotective activity in MPTP induced C57BL/6J mouse neurodegenerative model assessed as normal cell morphology in neuron cells treated with MPTP for 7 days followed by compound administration at 30 mg/kg, po by IHC staining method; format: functional, organism-based
Mus musculus [28] = experiment: Neuroprotective activity in MPTP induced C57BL/6J mouse neurodegenerative model assessed as normal fiber innervation in brain treated with MPTP for 7 days followed by compound administration at 30 mg/kg, po by IHC staining method; format: functional, organism-based
Mus musculus [29] = experiment: Neuroprotective activity in MPTP induced C57BL/6J mouse neurodegenerative model assessed as no change in IDO1 expression in brain striatum treated with MPTP for 7 days followed by compound administration at 30 mg/kg, po by Western blotting analysis; format: functional, organism-based
Mus musculus [30] = experiment: Neuroprotective activity in MPTP induced neurodegenerative C57BL/6J mouse model assessed as decrease in tryptophan metabolite NFK in mouse substantia nigra treated with MPTP for 7 days followed by compound administration at 30 mg/kg, po by LC-MS/MS analysis; format: functional, organism-based
Mus musculus [31] = experiment: Neuroprotective activity in MPTP induced neurodegenerative C57BL/6J mouse model assessed as decrease in tryptophan metabolite QUIN in mouse striatum treated with MPTP for 7 days followed by compound administration at 30 mg/kg, po by LC-MS/MS analysis; format: functional, organism-based
Mus musculus [32] = experiment: Neuroprotective activity in MPTP induced neurodegenerative C57BL/6J mouse model assessed as decrease in tryptophan metabolite QUIN in mouse substantia nigra treated with MPTP for 7 days followed by compound administration at 30 mg/kg, po by LC-MS/MS analysis; format: functional, organism-based
CYP2C9 = CYP2C9 (Homo sapiens, UniProt P11712); experiment: Inhibition of human liver microsome CYP2C9 using 4'-hydroxy diclofenac as substrate incubated at 3 uM for 10 mins by LC/MS/MS analysis relative to control; settings: liver microsomes, probe 4'-hydroxy diclofenac (so in the source)
[33] = biological target: Receptor-type tyrosine-protein kinase FLT3 (Homo sapiens) (UniProt P36888); experiment: Inhibition of human wildtype partial length FLT3 expressed in bacterial system at 10 uM relative to control
[34] = biological target: Dual specificity tyrosine-phosphorylation-regulated kinase 1B (Homo sapiens) (UniProt Q9Y463); experiment: Inhibition of human wildtype full length DYRK1B expressed in bacterial system at 10 uM relative to control
Chain of Dual specificity tyrosine-phosphorylation-regulated kinase 1B (Homo sapiens) (Q9Y463 whole entry, looked up): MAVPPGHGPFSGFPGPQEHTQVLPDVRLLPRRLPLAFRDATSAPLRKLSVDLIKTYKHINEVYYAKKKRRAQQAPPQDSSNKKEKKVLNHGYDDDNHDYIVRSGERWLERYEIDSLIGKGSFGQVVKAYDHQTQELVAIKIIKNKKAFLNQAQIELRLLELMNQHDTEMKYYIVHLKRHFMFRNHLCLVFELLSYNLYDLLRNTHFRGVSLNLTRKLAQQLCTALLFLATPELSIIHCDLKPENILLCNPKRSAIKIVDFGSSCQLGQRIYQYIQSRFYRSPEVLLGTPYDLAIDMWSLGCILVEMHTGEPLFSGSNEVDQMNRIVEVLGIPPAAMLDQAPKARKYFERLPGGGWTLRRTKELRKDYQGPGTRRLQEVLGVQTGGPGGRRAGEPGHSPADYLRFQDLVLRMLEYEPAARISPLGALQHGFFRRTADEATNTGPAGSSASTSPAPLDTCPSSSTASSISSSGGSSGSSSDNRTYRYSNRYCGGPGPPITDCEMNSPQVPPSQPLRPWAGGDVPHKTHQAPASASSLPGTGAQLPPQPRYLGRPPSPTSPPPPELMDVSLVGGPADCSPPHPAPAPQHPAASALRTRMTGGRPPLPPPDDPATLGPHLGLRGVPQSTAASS

Chain of Receptor-type tyrosine-protein kinase FLT3 (Homo sapiens) (P36888 whole entry): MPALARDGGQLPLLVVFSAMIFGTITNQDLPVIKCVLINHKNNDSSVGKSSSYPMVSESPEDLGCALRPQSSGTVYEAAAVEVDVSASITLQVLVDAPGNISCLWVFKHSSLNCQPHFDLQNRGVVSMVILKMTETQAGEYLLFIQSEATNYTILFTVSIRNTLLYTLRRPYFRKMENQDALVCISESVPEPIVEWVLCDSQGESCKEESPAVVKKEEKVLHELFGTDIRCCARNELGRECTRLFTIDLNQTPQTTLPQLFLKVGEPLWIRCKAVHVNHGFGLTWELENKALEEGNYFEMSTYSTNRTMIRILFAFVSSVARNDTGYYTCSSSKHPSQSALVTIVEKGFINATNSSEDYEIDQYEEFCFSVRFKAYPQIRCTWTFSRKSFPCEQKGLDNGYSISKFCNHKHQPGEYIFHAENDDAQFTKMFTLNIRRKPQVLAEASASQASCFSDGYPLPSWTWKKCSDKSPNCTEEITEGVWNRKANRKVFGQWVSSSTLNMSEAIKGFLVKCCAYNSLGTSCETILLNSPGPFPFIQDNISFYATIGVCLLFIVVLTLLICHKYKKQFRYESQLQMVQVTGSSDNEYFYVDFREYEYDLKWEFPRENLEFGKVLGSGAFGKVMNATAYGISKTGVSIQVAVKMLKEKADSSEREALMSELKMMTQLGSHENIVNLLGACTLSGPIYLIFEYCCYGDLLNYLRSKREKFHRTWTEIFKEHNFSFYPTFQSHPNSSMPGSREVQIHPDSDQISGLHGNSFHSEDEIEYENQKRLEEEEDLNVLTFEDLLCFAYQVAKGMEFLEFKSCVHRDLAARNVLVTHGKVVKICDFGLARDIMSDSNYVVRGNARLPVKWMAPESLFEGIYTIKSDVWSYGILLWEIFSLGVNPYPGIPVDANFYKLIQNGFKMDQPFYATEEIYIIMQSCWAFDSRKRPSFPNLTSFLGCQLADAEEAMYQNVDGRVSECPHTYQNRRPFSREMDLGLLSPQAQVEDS
Chain of CYP2C9 (P11712 whole entry): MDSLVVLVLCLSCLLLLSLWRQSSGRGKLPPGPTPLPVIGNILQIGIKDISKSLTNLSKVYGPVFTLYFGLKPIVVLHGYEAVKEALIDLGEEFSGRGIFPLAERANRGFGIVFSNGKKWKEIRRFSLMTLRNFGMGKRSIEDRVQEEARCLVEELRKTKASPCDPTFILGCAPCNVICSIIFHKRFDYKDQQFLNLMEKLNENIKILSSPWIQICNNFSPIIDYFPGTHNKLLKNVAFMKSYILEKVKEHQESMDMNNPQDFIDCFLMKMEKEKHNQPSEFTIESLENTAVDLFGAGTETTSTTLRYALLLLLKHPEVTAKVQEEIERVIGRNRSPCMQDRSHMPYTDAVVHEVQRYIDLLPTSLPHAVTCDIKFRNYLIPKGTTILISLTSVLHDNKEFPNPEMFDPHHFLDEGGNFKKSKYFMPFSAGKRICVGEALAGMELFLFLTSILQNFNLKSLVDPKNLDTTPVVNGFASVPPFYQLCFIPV
Chain of Tryptophan 2,3-dioxygenase (P48775 whole entry): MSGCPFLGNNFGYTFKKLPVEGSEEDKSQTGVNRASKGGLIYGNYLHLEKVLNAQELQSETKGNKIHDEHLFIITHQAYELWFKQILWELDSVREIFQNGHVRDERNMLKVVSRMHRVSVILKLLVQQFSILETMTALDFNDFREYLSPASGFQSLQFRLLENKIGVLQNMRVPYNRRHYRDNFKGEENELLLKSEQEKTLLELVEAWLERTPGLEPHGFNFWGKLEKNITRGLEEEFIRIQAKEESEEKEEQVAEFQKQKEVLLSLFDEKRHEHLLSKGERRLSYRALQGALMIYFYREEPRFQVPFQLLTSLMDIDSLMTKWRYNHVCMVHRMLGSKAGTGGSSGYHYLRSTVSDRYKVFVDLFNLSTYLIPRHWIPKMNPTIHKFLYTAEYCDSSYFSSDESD
Chain of Indoleamine 2,3-dioxygenase 1 (P14902 whole entry): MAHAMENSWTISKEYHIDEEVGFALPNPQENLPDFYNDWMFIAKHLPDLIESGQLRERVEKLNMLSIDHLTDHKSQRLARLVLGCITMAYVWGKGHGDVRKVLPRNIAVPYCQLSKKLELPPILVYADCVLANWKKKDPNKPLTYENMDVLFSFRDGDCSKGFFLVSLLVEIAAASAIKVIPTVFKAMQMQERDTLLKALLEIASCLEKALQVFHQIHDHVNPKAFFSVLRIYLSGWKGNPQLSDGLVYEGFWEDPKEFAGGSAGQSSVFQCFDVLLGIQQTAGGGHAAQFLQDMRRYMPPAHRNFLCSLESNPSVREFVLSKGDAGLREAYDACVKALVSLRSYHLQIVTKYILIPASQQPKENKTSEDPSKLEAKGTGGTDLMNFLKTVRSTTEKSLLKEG

EC50 [1]: 5.5 µM
EC50 [2]: 1.07 µM
Papp A→B (BCRP [3]): 18.8 ×10⁻⁶ cm/s
Papp A→B (BCRP [4]): 19.4 ×10⁻⁶ cm/s
Papp B→A (MDR1 [5]): 10.3 ×10⁻⁶ cm/s
Papp B→A (BCRP [6]): 10.4 ×10⁻⁶ cm/s
Papp B→A (BCRP [7]): 9.97 ×10⁻⁶ cm/s
efflux ratio (BCRP [8]): 0.51
recovery (MDR1 [9]): 55.1%
recovery (BCRP [10]): 42.2%
recovery (MDR1 [11]): 81.9%
recovery (BCRP [12]): 74.5%
Fu [13]: 0.73%
fraction unbound [14]: 0.0073
AUC(0-t) [15]: 22200 ng·h/mL
half-life [16]: 4.27 h
half-life [17]: 10.1 h
Cmax [18]: 6870 ng/mL
AUC(0-t) [19]: 30300 ng·h/mL
AUC(0-inf) [20]: 26600 ng·h/mL
Vd [21]: 28.1 L/kg
CL/F [22]: 69.7 mL/min/kg
clearance [23]: 40.5 mL/min/kg
bioavailability [24]: 73.2%
Ratio [25]: 0.81%
inhibition at 10 min, 3 µM (CYP2C9): 83.4%
inhibition [33]: > 90%
inhibition [34]: > 90%
Compound: O[C@@H]1CCCC[C@H]1CNc1cc(Br)cc2[nH]ncc12
Activity (Mus musculus [26]): Active
Activity (Mus musculus [27]): Active
Activity (Mus musculus [28]): Active
Activity (Mus musculus [29]): Active
Activity (Mus musculus [30]): Active
Activity (Mus musculus [31]): Active
Activity (Mus musculus [32]): Active
